Molecular target: Agl1 (Bifidobacterium breve, UniProt C0JP82)
Test: Product inhibition of pNPG hydrolysis
Details: 2 mM pNPG

IC50 (product inhibition): 100 mg/mL
SMILES: OC[C@H]1O[C@H](O[C@H]2[C@H](O)[C@@H](O)C(O)O[C@@H]2CO)[C@H](O)[C@@H](O)[C@@H]1O (mixture of isomers) [maltose]
